Experimental data taken from ChEMBL document CHEMBL1201862, “PubChem BioAssay data set” (2004).
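Test compounds were applied to cells in 96-well plates for 48 hours at 5 doses. GI50: concentration for 50% inhibition of growth.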 Active and inactive are the calls of the source. Cut-off read from the data, not from the text of the source: active = GI50 up to about 1.1 µM and inactive = higher.

Key:
Experiment in all cases: inhibition of tumour cell growth, NCI panel, 48 h
OVCAR-5 = tested on: OVCAR-5
HCT-116 = tested on: HCT-116
SF-539 = tested on: SF-539
HOP-62 = tested on: HOP-62
KM12 = tested on: KM12
HT-29 = tested on: HT-29
MOLT-4 = tested on: MOLT-4
HOP-92 = tested on: HOP-92
NCI-H522 = tested on: NCI-H522
RXF 393 = tested on: RXF 393
SK-OV-3 = tested on: SK-OV-3
NCI-H460 = tested on: NCI-H460
HCT-15 = tested on: HCT-15
CAKI-1 = tested on: CAKI-1
SR = tested on: SR

SMILES | GI50 (OVCAR-5) | GI50 (HCT-116) | GI50 (SF-539) | GI50 (HOP-62) | GI50 (KM12) | GI50 (HT-29) | GI50 (MOLT-4) | GI50 (HOP-92) | GI50 (NCI-H522) | GI50 (RXF 393) | GI50 (SK-OV-3) | GI50 (NCI-H460) | GI50 (HCT-15) [µM] | GI50 (CAKI-1) | GI50 (SR)
C/C(CC(=O)Nc1cccc([N+](=O)[O-])c1)=N\NC(=O)CC#N | > 100 µM (inactive) | > 100 µM (inactive) | > 100 µM (inactive) | > 100 µM (inactive) | > 100 µM (inactive) | > 100 µM (inactive) | > 100 µM (inactive) | > 100 µM (inactive) | 99.1 µM (inactive) | > 100 µM (inactive) | > 100 µM (inactive) |  |  |  | 
COC(=O)C1(c2ccc(OC)cc2)NC(c2ccccc2)C2C(=O)N(c3ccc(OC)cc3)C(=O)C21 (stereo not drawn) | > 100 µM (inactive) |  | > 100 µM (inactive) |  | > 100 µM (inactive) | > 100 µM (inactive) | > 100 µM (inactive) |  | > 100 µM (inactive) | > 100 µM (inactive) | > 100 µM (inactive) | > 100 µM (inactive) | > 100 | > 100 µM (inactive) | 
CN(c1ccccc1)c1nc(=[N+]2CCCC2)ss1.[O-][Cl+3]([O-])([O-])[O-] |  | > 100 µM (inactive) |  |  | > 100 µM (inactive) |  | > 100 µM (inactive) |  | 1.7 µM (inactive) | 3.03 µM (inactive) | > 100 µM (inactive) | 1.85 µM (inactive) | 87.7 | > 100 µM (inactive) | 17.1 µM (inactive)
c1ccc2c(c1)[nH]c1c2ncc2[nH]c3ccccc3c21 | 10.9 µM (inactive) | 1.77 µM (inactive) | 2.61 µM (inactive) | 4.31 µM (inactive) | 3.06 µM (inactive) | 2.88 µM (inactive) | 3.05 µM (inactive) | 2.57 µM (inactive) | 4.74 µM (inactive) |  | 14.1 µM (inactive) | 2.13 µM (inactive) | 2.25 | 3.73 µM (inactive) | 
O=C1CCCCCCCCCCC1CN1CCCCC1 (stereo not drawn) | 89.7 µM (inactive) | 58.6 µM (inactive) |  | > 100 µM (inactive) | 71.1 µM (inactive) | 35.6 µM (inactive) | 57 µM (inactive) |  | > 100 µM (inactive) |  |  | 51.1 µM (inactive) | 59.8 |  | > 100 µM (inactive)
CC(=O)OC1CC[C@@]2(C)C(CC(OC3OC(CO)C(O)C(O)C3O)[C@]3(C)C2CCC24CC23CC[C@H]4C(C)CC(O)[C@@H](O)C(C)(C)O)C1(C)C (stereo partly drawn) | > 50 µM (inactive) | 9.91 µM (inactive) | 10.3 µM (inactive) | 18.6 µM (inactive) | 10.5 µM (inactive) | 16.9 µM (inactive) | 11.4 µM (inactive) | 10 µM (inactive) | 8.63 µM (inactive) | 12.5 µM (inactive) | > 50 µM (inactive) | 18.8 µM (inactive) | > 50 | 41.7 µM (inactive) | 
CCOC(=O)[C@H]1Nc2ccc(C)cc2C2c3ccccc3CC21 (stereo partly drawn) | > 100 µM (inactive) | > 100 µM (inactive) | > 100 µM (inactive) | > 100 µM (inactive) | > 100 µM (inactive) | > 100 µM (inactive) | > 100 µM (inactive) |  | > 100 µM (inactive) | 31.6 µM (inactive) |  | > 100 µM (inactive) | > 100 | > 100 µM (inactive) | > 100 µM (inactive)
Nc1cc[nH]c(=O)n1 | > 100 µM (inactive) | > 100 µM (inactive) | > 100 µM (inactive) | > 100 µM (inactive) | > 100 µM (inactive) | > 100 µM (inactive) |  | > 100 µM (inactive) | > 100 µM (inactive) | > 100 µM (inactive) | > 100 µM (inactive) | > 100 µM (inactive) | > 100 | > 100 µM (inactive) | 
O=C(Cn1ccnc1[N+](=O)[O-])c1ccc(F)cc1 | > 100 µM (inactive) |  | > 100 µM (inactive) | > 100 µM (inactive) | > 100 µM (inactive) | > 100 µM (inactive) | > 100 µM (inactive) | > 100 µM (inactive) | > 100 µM (inactive) | > 100 µM (inactive) | > 100 µM (inactive) | > 100 µM (inactive) | > 100 | > 100 µM (inactive) | 
